Values quoted from earlier work, collected in patent US9072783B2, “Highly dispersible powders, compositions and methods for preparation” (Aridis Pharmaceuticals, priority 2009, dated 2015).

Details: of the amino acid itself (Table 3)

Compound	Hydropathy Index
N[C@@H](CC(=O)O)C(=O)O [Aspartic Acid, aspartic acid]	−3.5
N[C@@H](Cc1ccc(O)cc1)C(=O)O [Tyrosine, tyrosine]	−1.3
